Measurements as given in US11905306B2 (priority 2021, dated 2024).

Key:
Toronto 2 SARS CoV-1 = assay: organism not typed; format: cell-based; conditions: Vero C1008, 72 h, read-out: SARS-1 EC50 (μM) VeroE6
USA_WA1/2020 SARS CoV-2 = assay: microbe, parasite or virus in culture; format: cell-based; conditions: Severe acute respiratory syndrome coronavirus 2, Vero C1008, 72 h, read-out: SARS-2 EC50 (μM) VeroE6
in vitro = conditions: African green monkey

| SMILES | EC50 (Toronto 2 SARS CoV-1) | EC50 (USA_WA1/2020 SARS CoV-2) | CC50 (in vitro) |
| --- | --- | --- | --- |
| O=C1Nc2ccc(C(=O)Nc3cccc(C#Cc4ccccn4)c3)cc2CO1 [Compound 3, Oxo-N-(3-(pyridin-2-ylethynyl)phenyl)-1,4-dihydro-2H-benzo[d][1,3]oxazine-6-carboxamide] | > 30 µM | 11.6 µM | 15.8 µM |
| CCC(=O)Nc1ccc(C(=O)Nc2cccc(C#Cc3ccccn3)c2)cc1 [Compound 6, 4-Propionamido-N-(3-(pyridin-2-ylethynyl)phenyl)benzamide] | 0.92 µM | 1.01 µM | > 30 µM |
| CCCC(=O)Nc1ccc(C(=O)Nc2cccc(C#Cc3ccccn3)c2)cc1 [Compound 7, 4-Butyramido-N-(3-(pyridin-2-ylethynyl)phenyl)benzamide] | 0.16 µM | 0.26 µM | > 30 µM |
| O=C(Nc1cccc(C#Cc2ccccn2)c1)c1ccc(NC(=O)C(F)(F)F)cc1 [Compound 10, N-(3-(Pyridin-2-ylethynyl)phenyl)-4-(2,2,2-trifluoroacetamido)benzamide] | 4.89 µM | 6.52 µM | > 30 µM |
| CCOC(=O)Nc1ccc(C(=O)Nc2cccc(C#Cc3ccccn3)c2)cc1 [Compound 11, Ethyl (4-((3-(pyridin-2-ylethynyl)phenyl)carbamoyl)phenyl)carbamate] | 0.84 µM | 1.07 µM | > 30 µM |
| NC(=O)Nc1ccc(C(=O)Nc2cccc(C#Cc3ccccn3)c2)cc1 [Compound 12, N-(3-(pyridin-2-ylethynyl)phenyl)-4-ureidobenzamide] | > 30 µM | > 30 µM | > 30 µM |
| O=C(Nc1cccc(C#Cc2ccccn2)c1)c1ccc(NC(=O)N2CCOCC2)cc1 [Compound 13, N-(4-((3-(Pyridin-2-ylethynyl)phenyl)carbamoyl)phenyl)morpholine-4-carboxamide] | 7.94 µM | 8.25 µM | > 40 µM |
| O=C(Nc1cccc(C#Cc2ccccn2)c1)c1ccc(N2CCCNC2=O)cc1 [Compound 15, 4-(2-Oxotetrahydropyrimidin-1(2H)-yl)-N-(3-(pyridin-2-ylethynyl)phenyl)benzamide] | 9.71 µM | 7.81 µM | > 30 µM |
| CN1CCN(c2ccc(C(=O)Nc3cccc(C#Cc4ccccn4)c3)cc2)C1=O [Compound 16, 4-(3-Methyl-2-oxoimidazolidin-1-yl)-N-(3-(pyridin-2-ylethynyl)phenyl)benzamide] | 0.75 µM | 1.28 µM | > 30 µM |
| O=C(Nc1cccc(C#Cc2ccccn2)c1)c1ccc(N2CCCOC2=O)cc1 [Compound 18, 4-(2-Oxo-1,3-oxazinan-3-yl)-N-(3-(pyridin-2-ylethynyl)phenyl)benzamide] | > 30 µM | > 30 µM | > 30 µM |
| CC(=O)N(C)c1ccc(C(=O)Nc2cccc(C#Cc3ccccn3)c2)cc1 [Compound 19, 4-(N-methylacetamido)-N-(3-(pyridin-2-ylethynyl)phenyl)benzamide] | 2.19 µM | 3.92 µM | > 30 µM |
| O=C(Nc1cccc(C#Cc2ccccn2)c1)c1ccc(N2CCC2=O)cc1 [Compound 20, 4-(2-oxoazetidin-1-yl)-N-(3-(pyridin-2-ylethynyl)phenyl)benzamide] | 2.12 µM | 11.7 µM | > 30 µM |
| CC1(C)CN(c2ccc(C(=O)Nc3cccc(C#Cc4ccccn4)c3)cc2)C1=O [Compound 21, 4-(3,3-Dimethyl-2-oxoazetidin-1-yl)-N-(3-(pyridin-2-ylethynyl)phenyl)benzamide] | 0.52 µM | 0.32 µM | > 30 µM |
| O=C(Nc1cccc(C#Cc2ccccn2)c1)c1ccc(N2CCCCCC2=O)cc1 [Compound 25, 4-(2-Oxoazepan-1-yl)-N-(3-(pyridin-2-ylethynyl)phenyl)benzamide] | 0.52 µM | 1.09 µM | > 30 µM |
| COc1ccc(C(=O)Nc2ccc(C(=O)Nc3cccc(C#Cc4ccccn4)c3)cc2)cc1 [Compound 27, 4-Methoxy-N-(4-((3-(pyridin-2-ylethynyl)phenyl)carbamoyl)phenyl)benzamide] | > 30 µM | > 30 µM | > 30 µM |
